The target in one assay is PI3Kδ (Homo sapiens (Human), UniProt O00329). The assay is described as follows: ADP-Glo chemiluminescence enzymatic activity assay, PI3Kδ. In kind it is biochemical. The settings on record: mean ± SD, N = 3, ATP 40 μM. As for the experimental part: (§1) • 1. Research purpose: The inhibitory effect of compound I on the enzymatic activity of PI3Kδ and PI3Kγ in vitro. • 2. Experimental materials: • (1) Main instrument: Envision (PerkinElmer-2104) • (2) Main reagents: ADP-Glo kinase kit (purchased from Promega), PI3Kδ (P1108/P85a) (purchased from Millipore), and PI3Kγ (P120γ) (purchased from Millipore). • 3. Experimental methods: • 1) Preparation of buffer salt solution: A 10× buffer salt solution with a pH of 7.5 containing 500 mM HEPES, 500 mM NaCl, and 30 mM MgCl2 was prepared with ultrapure water and stored at 4° C. for later use. Before use, the above buffer salt solution was diluted to a 3.33× buffer salt solution and BSA was added to a final concentration of 0.333 mg/mL. • 2) A 100× reference compound (compound I) was prepared with a starting concentration of 100 nM, diluted in a 3-fold serial dilution to 10 concentrations and transferred to the corresponding 384 microwell plate at 50 nL/well. In the control group, 50 nL/well of DMSO was added. • 3) 3.33×PI3K solutions were prepared with the 3.33× buffer salt solution, PI3Kδ at a final concentration of 0.25 nM, PI3Kγ at a final concentration of 0.4 nM. A 3.33×PIP2:3PS solution was prepared, mixed with the enzyme solutions at a volume ratio of 1:1, and added to the 384 microwell plate in 3 μL/well. […] The luminescence value was read using Envision. • 4. […]

Another assay concerns the target PI3Kγ (Homo sapiens (Human), UniProt P48736). The assay is described as follows: ADP-Glo chemiluminescence enzymatic activity assay, PI3Kγ. The conditions noted are these: mean ± SD, N = 3, ATP 25 μM. In kind it is biochemical. As for the experimental part:
as §1

The next assay relates to human Treg cells. The assay is described as follows: In vitro pharmacodynamic experiment on human Treg cells (flow cytometry CD4, CD25, Foxp3). In kind it is cell-based. The settings on record: for IC50: Homo sapiens, 120 h, five days of compound incubation, CD4, CD25, Foxp3 positive counts vs DMSO control, read-out: IC50, inhibitory activity on human Treg cells. The procedure: • 1. Research purpose: The in vitro pharmacodynamic experiment of compound I on human Treg cells. • 2. […] Experimental methods: • 1) A 96-well cell culture plate was coated with 10 μg/mL anti-human CD3, 50 μL per well, incubated at 37° C. for three hours, and then rinsed with X-VIVO medium. • 2) Human peripheral blood mononuclear cells (purchased from Hemacare) were resuscitated and stained with CellTrace Violet (CTV). • 3) After staining, Human Naive CD4+ T cells were isolated using the Human naïve CD4 isolation kit. • 4) IL-2 (10 ng/ml), CD28 (2 μg/mL), and TGF-b (1 ng/mL) were added to the cell culture medium, and different concentrations of the test compounds were added at the same time. • 5) After five days of compound incubation, CD4, CD25, and Foxp3 were detected by flow cytometry. The positive counts of CD4, CD25, and Foxp3 were calculated, and the relative survival rate and IC50 were calculated compared with the DMSO control group. • 4. Experimental results: • The experiment used the flow cytometry method to determine the in vitro pharmacodynamic experiment of the test compound I on human Treg cells. The detection results are shown in A and B of FIG. 5 and Table 3.

Sequence of PI3Kδ (O00329 whole entry, looked up): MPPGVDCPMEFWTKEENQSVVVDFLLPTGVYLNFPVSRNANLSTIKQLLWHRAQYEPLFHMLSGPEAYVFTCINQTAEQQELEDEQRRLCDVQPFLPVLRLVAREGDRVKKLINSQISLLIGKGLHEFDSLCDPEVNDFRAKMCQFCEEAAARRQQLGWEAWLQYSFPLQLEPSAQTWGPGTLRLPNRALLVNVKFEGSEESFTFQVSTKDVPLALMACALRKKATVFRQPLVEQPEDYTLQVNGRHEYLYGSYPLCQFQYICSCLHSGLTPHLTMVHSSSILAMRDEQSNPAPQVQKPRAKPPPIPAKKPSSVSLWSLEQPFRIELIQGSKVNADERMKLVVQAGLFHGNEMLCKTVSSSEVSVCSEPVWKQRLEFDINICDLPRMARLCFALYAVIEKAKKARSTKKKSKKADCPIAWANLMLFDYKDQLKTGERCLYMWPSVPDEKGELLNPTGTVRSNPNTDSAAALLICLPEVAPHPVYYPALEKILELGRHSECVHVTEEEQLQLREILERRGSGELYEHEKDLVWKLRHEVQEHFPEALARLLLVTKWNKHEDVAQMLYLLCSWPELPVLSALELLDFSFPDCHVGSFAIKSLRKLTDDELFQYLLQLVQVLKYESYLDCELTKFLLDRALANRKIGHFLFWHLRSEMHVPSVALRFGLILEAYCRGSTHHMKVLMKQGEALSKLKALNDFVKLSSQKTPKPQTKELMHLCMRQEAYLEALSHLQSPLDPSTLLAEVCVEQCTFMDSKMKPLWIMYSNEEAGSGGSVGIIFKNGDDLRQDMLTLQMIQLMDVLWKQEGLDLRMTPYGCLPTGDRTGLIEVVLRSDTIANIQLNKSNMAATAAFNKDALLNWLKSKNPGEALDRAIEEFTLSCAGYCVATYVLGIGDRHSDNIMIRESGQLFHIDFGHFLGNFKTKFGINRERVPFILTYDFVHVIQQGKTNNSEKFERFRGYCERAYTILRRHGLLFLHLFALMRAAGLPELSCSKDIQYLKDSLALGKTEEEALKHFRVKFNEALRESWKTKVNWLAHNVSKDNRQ
Sequence of PI3Kδ (P27986 whole entry partner, looked up): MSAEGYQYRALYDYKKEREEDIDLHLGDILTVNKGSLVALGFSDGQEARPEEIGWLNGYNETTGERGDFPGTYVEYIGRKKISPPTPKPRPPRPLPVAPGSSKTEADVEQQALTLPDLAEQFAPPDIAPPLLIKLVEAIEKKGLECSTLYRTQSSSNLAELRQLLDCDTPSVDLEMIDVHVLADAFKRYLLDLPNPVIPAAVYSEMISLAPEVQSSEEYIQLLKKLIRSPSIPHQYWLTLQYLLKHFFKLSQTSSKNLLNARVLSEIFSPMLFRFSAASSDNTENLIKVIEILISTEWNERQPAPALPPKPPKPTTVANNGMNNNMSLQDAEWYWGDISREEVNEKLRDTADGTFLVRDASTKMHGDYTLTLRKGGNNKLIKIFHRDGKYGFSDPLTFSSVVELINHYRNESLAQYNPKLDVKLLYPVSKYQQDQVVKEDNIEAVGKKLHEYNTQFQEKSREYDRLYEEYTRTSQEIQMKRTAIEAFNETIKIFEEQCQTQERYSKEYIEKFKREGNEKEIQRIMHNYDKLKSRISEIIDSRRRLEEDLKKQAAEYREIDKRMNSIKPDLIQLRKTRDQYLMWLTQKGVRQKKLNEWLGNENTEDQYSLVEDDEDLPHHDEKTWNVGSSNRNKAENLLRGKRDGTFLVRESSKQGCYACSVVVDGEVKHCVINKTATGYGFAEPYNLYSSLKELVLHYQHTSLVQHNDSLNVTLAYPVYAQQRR
Sequence of PI3Kγ (P48736 whole entry): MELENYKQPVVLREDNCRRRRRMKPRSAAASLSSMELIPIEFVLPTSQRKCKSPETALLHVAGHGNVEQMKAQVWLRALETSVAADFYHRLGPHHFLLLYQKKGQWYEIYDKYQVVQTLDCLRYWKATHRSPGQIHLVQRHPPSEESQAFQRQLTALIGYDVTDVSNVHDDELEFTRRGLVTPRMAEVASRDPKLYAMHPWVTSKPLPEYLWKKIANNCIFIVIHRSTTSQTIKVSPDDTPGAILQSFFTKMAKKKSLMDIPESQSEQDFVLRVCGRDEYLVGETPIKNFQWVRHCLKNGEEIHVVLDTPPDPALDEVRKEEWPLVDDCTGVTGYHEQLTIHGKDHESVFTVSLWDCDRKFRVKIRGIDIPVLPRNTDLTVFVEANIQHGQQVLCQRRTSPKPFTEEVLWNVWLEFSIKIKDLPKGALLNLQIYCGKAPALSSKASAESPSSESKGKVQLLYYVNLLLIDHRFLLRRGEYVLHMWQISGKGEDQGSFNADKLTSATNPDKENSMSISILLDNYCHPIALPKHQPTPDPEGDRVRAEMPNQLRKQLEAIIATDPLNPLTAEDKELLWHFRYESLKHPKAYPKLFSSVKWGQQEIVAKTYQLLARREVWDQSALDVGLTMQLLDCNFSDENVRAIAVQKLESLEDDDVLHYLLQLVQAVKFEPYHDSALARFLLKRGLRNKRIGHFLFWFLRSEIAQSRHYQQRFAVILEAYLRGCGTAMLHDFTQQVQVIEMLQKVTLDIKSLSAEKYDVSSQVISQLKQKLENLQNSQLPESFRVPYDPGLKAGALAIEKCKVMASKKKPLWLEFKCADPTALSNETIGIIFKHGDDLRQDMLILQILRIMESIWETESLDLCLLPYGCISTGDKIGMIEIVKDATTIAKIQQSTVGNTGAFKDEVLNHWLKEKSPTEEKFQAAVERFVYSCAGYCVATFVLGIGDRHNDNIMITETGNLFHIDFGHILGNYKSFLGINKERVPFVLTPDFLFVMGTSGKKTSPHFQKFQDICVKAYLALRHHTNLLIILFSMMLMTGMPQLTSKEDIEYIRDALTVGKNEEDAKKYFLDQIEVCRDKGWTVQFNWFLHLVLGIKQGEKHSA

What is called IC50 is the concentration that inhibits the measured activity by half. As for `COCCOc1cnc2ccc(-c3cnc(OC)c(NS(=O)(=O)c4sc(C)nc4C)c3)cn2c1=O` [Compound I], the 50% inhibitory concentration (IC50) worked out at 0.18 ± 0.01 nM on PI3Kδ, 0.29 ± 0.02 nM on PI3Kγ and 0.01 nM in the assay on human Treg cells. For the same molecule, the “inhibitory activity on human Treg cells relative to Idelalisib” value in the assay on human Treg cells (ratio of IC50 values) was found to be 3172 times.
For `CC[C@H](Nc1ncnc2[nH]cnc12)c1nc2cccc(F)c2c(=O)n1-c1ccccc1` [Idelalisib, reference compound], the IC50 with human Treg cells was 31.7 nM.

Source of the values: patent US20240342176A1, “PHARMACEUTICAL COMBINATION AND APPLICATION THEREOF” (GUANGZHOU JOYO PHARMATECH CO., LTD, priority 2021, published 2024).
